Results published in US20060069132A1, “Azolecarboxamide herbicides” (priority 2004, published 2006).

Experiments:
blackgrass [1] = experiment: Test B postemergence herbicide test; format: in vivo, Alopecurus myosuroides
How it was run: (§1)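 Formulated test chemicals went onto postemergence plants measuring 2 to 18 cm, at one to four leaves. For the paddy assay, species had reached two leaves. Scoring took place 13–15 days later by eye, relative to untreated plants, using 0 for no effect up to 100 for full control.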

winter barley = experiment: Test C postemergence herbicide test; format: in vivo, Hordeum vulgare
Description: (§2) At the same time, plants selected from these crop and weed species and also winter barley (Hordeum vulgare L.), blackgrass (Alopecurus myosuroides Huds.), canarygrass (Phalaris minor Retz.), chickweed (Stellaria media (L.) Vill.), downy bromegrass (Bromus tectorum L.), green foxtail (Setaria viridis (L.) Beauv.), Italian ryegrass (Lolium multiflorum Lam.), wheat (Triticum aestivum L.), wild oat (Avenafatua L.) and windgrass (Apera spica-venti (L.) Beauv.) were treated with postemergence applications of some of the test chemicals formulated in the same manner. Plants ranged in height from 2 to 18 cm (1- to 4-leaf stage) for postemergence treatments. Plant species in the flooded paddy test consisted of rice (Oryza sativa), smallflower umbrella sedge (Cyperus difformis L.), ducksalad (Heteranthera limosa (Sw.) Willd.) and barnyardgrass (Echinochloa crus-galli (L.) Beauv.) grown to the 2-leaf stage for testing. Treated plants and controls were maintained in a greenhouse for 12 to 14 days, after which time all species were compared to controls and visually evaluated. Plant response ratings, summarized in Table C, are based on a scale of 0 to 100 where 0 is no effect and 100 is complete control. A dash (-) response means no test result.

blackgrass [2] = experiment: Test C postemergence herbicide test; format: in vivo, Alopecurus myosuroides
Description: as §2

windgrass = experiment: Test C postemergence herbicide test; format: in vivo, Apera spica-venti
Description: as §2

wild oat [3] = experiment: Test B postemergence herbicide test; format: in vivo, Avena fatua
How it was run: (§3)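 After treating 2-leaf paddy plants or 2–18 cm postemergence plants (1 to 4 leaves) with formulated chemical, researchers kept them in a greenhouse for 13–15 days. Effects were judged visually versus controls: 0 indicates none, 100 total control.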

lambsquarters = experiment: Test B pre-/postemergence herbicide test; format: in vivo, Chenopodium album
How it was run: (§4)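 Evaluation is visual, comparing treated with control plants on a scale where 0 means no effect and 100 means full control. Treatments were preemergence, or postemergence on seedlings 2–18 cm tall, and held 13–15 days in the greenhouse.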

Surinam grass = experiment: Test B pre-/postemergence herbicide test; format: in vivo, Urochloa decumbens
How it was run: as §4

wheat [4] = experiment: Test B postemergence herbicide test; format: in vivo, Triticum aestivum; parameters: key to Wheat plant response rating: 0 = no effect, 100 = complete control
How it was run: as §3

green foxtail = experiment: Test C postemergence herbicide test; format: in vivo, Setaria viridis
Description: as §2

canarygrass = experiment: Test C postemergence herbicide test; format: in vivo, Phalaris minor
Description: as §2

ducksalad = experiment: Test B flooded paddy test; format: in vivo, Heteranthera limosa; settings: 1000 g ai/ha, scale 0 to 100 (0 no effect, 100 complete control)
How it was run: as §1

large crabgrass = experiment: Test B pre-/postemergence herbicide test; format: in vivo, Digitaria sanguinalis
How it was run: as §4

pigweed = experiment: Test B pre-/postemergence herbicide test; format: in vivo, Amaranthus retroflexus
How it was run: as §4

barnyardgrass [5] = experiment: Test B pre-/postemergence herbicide test; format: in vivo, Echinochloa crus-galli; settings: for Barnyardgrass plant response rating: Postemergence, scale 0 (no effect) to 100 (complete control)
How it was run: (§5)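 Plants compared with untreated controls 13–15 days post-treatment and given a visual 0–100 injury score. Applications: preemergence to seeds; postemergence at 1- to 4-leaf (2–18 cm); paddy species flooded, 2-leaf stage. Vehicle non-phytotoxic, surfactant included.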

corn = experiment: Test B pre-/postemergence herbicide test; format: in vivo, Zea mays
How it was run: as §4

wheat [6] = experiment: Test C postemergence herbicide test; format: in vivo, Triticum aestivum
Description: as §2

rice = experiment: Test B flooded paddy test; format: in vivo, Oryza sativa; settings: 1000 g ai/ha, scale 0 to 100 (0 no effect, 100 complete control)
How it was run: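 Each value is a visual 0–100 response rating taken against controls 13 to 15 days after treatment in the greenhouse. Plants received formulated chemical postemergence at the 1- to 4-leaf stage or, in flooded paddy, at the 2-leaf stage.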

Italian ryegrass = experiment: Test C postemergence herbicide test; format: in vivo, Lolium multiflorum
Description: as §2

morningglory = experiment: Test B pre-/postemergence herbicide test; format: in vivo, Ipomoea coccinea
How it was run: as §5

velvetleaf = experiment: Test B pre-/postemergence herbicide test; format: in vivo, Abutilon theophrasti
How it was run: as §4

cocklebur = experiment: Test B pre-/postemergence herbicide test; format: in vivo, Xanthium strumarium
How it was run: as §5

barnyardgrass [7] = experiment: Test B flooded paddy test; format: in vivo, Echinochloa crus-galli; settings: 1000 g ai/ha, scale 0 to 100 (0 no effect, 100 complete control)
How it was run: as §1

[8] = tested on: small flower umbrella sedge; experiment: Test B flooded paddy test; format: in vivo, Cyperus difformis; settings: 1000 g ai/ha, scale 0 to 100 (0 no effect, 100 complete control)
How it was run: as §1

giant foxtail = experiment: Test B pre-/postemergence herbicide test; format: in vivo, Setaria faberi
How it was run: as §4

wild oat [9] = experiment: Test C postemergence herbicide test; format: in vivo, Avenafatua
Description: as §2

downy bromegrass = experiment: Test C postemergence herbicide test; format: in vivo, Bromus tectorum
Description: as §2

[10] = Postemergence, 500 g ai/ha, scale 0 (no effect) to 100 (complete control)
[11] = postemergence, 125 g ai/ha, scale 0 to 100
[12] = Postemergence, 500 g ai/ha, scale 0 to 100
[13] = Postemergence, 250 g ai/ha, scale 0 to 100, 0 no effect, 100 complete control
[14] = postemergence, 62 g ai/ha, scale 0 to 100
[15] = Postemergence, 500 g ai/ha, scale 0 to 100, 0 no effect, 100 complete control
[16] = 125 g ai/ha, 0 is no effect, 100 is complete control, preemergence

Structure (SMILES): C=CCN(CC=C)C(=O)c1ccc(F)c(NC(=O)c2cc(C(C)(C)C)nn2CC)c1 [Compound 431]
- Blackgrass plant response rating (blackgrass [1]; [10]): 50
- Blackgrass plant response rating (blackgrass [1]; [11]): 30
- Barley, Winter plant response rating (winter barley; [12]): 60
- Plant response rating, Barley, Winter (winter barley; [13]): 45
- Plant response rating, Barley, Winter (winter barley; postemergence, 125 g ai/ha, scale 0 to 100 (0 no effect, 100 complete control)): 40
- Plant response rating, Barley, Winter (winter barley; postemergence, 62 g ai/ha, scale 0 to 100 (0 no effect, 100 complete control)): 40
- Blackgrass plant response rating (blackgrass [2]; [12]): 60
- Plant response rating, Blackgrass (blackgrass [2]; [13]): 60
- Plant response rating, Blackgrass (blackgrass [2]; [11]): 55
- Plant response rating, Blackgrass (blackgrass [2]; [14]): 45
- Plant response rating, Windgrass (windgrass; [15]): 60
- Plant response rating, Windgrass (windgrass; [11]): 40
- Plant response rating, Windgrass (windgrass; [14]): 40
- Oat, Wild plant response rating (wild oat [3]; [10]): 50
- Oat, Wild plant response rating (wild oat [3]; [11]): 30
- Plant response rating (0 to 100 scale), Lambsquarters (lambsquarters; [16]): 60
- Lambsquarters plant response rating (lambsquarters; [10]): 60
- Lambsquarters plant response rating (lambsquarters; [11]): 40
- Plant response rating (0 to 100 scale), Surinam Grass (Surinam grass; [16]): 10
- Surinam Grass plant response rating (Surinam grass; [10]): 30
- Surinam Grass plant response rating (Surinam grass; [11]): 20
- Wheat plant response rating (wheat [4]; 500 g ai/ha, scale 0 to 100, 0 no effect, 100 complete control, preemergence): 10
- Wheat plant response rating (wheat [4]; [10]): 30
- Wheat plant response rating (wheat [4]; [11]): 30
- Plant response rating, Foxtail, Green (green foxtail; [13]): 60
- Plant response rating, Foxtail, Green (green foxtail; [15]): 65
- Plant response rating, Foxtail, Green (green foxtail; [11]): 60
- Plant response rating, Foxtail, Green (green foxtail; [14]): 45
- Plant response rating, Canarygrass (canarygrass; [13]): 60
- Plant response rating, Canarygrass (canarygrass; [15]): 60
- Plant response rating, Canarygrass (canarygrass; [11]): 45
- Plant response rating, Canarygrass (canarygrass; [14]): 40
- Ducksalad plant response rating (ducksalad): 80
- Plant response rating (0 to 100 scale), Crabgrass, Large (large crabgrass; [16]): 60
- Crabgrass, Large plant response rating (large crabgrass; [10]): 30
- Crabgrass, Large plant response rating (large crabgrass; [11]): 20
- Plant response rating (0 to 100 scale), Pigweed (pigweed; [16]): 40
- Pigweed plant response rating (pigweed; [10]): 70
- Pigweed plant response rating (pigweed; [11]): 50
- Plant response rating (0 to 100 scale), Barnyardgrass (barnyardgrass [5]; [16]): 10
- Barnyardgrass plant response rating (barnyardgrass [5]; 125 g ai/ha): 10
- Barnyardgrass plant response rating (barnyardgrass [5]; 500 g ai/ha): 20
- Plant response rating (0 to 100 scale), Corn (corn; [16]): 0
- Corn plant response rating (corn; [10]): 20
- Corn plant response rating (corn; [11]): 20
- Plant response rating, Wheat (wheat [6]; [15]): 45
- Plant response rating, Wheat (wheat [6]; [11]): 40
- Plant response rating, Wheat (wheat [6]; [14]): 40
- Rice plant response rating (rice): 30
- Plant response rating, Ryegrass, Italian (Italian ryegrass; [15]): 55
- Plant response rating, Ryegrass, Italian (Italian ryegrass; [11]): 45
- Plant response rating, Ryegrass, Italian (Italian ryegrass; [14]): 40
- Plant response rating (0 to 100 scale), Morningglory (morningglory; [16]): 0
- Morningglory plant response rating (morningglory; [10]): 70
- Morningglory plant response rating (morningglory; [11]): 40
- Plant response rating (0 to 100 scale), Velvetleaf (velvetleaf; [16]): 20
- Velvetleaf plant response rating (velvetleaf; [10]): 40
- Velvetleaf plant response rating (velvetleaf; [11]): 20
- Plant response rating (0 to 100 scale), Cocklebur (cocklebur; [16]): 0
- Cocklebur plant response rating (cocklebur; [10]): 60
- Cocklebur plant response rating (cocklebur; [11]): 30
- Barnyardgrass plant response rating (barnyardgrass [7]): 60
- Sedge, Umbrella plant response rating [8]: 80
- Plant response rating (0 to 100 scale), Foxtail, Giant (giant foxtail; [16]): 50
- Foxtail, Giant plant response rating (giant foxtail; [10]): 30
- Foxtail, Giant plant response rating (giant foxtail; [11]): 20
- Plant response rating, Oat, Wild (wild oat [9]; [15]): 65
- Plant response rating, Oat, Wild (wild oat [9]; [11]): 55
- Plant response rating, Oat, Wild (wild oat [9]; [14]): 45
- Plant response rating, Bromegrass, Downy (downy bromegrass; [13]): 55
- Plant response rating, Bromegrass, Downy (downy bromegrass; [15]): 60
- Plant response rating, Bromegrass, Downy (downy bromegrass; [11]): 45
- Plant response rating, Bromegrass, Downy (downy bromegrass; [14]): 40
